Reference: patent US20130041005A1, “PHARMACEUTICAL COMPOSITIONS COMPRISING NEUROPILIN INHIBITORS, AND THEIR USE FOR THE PREVENTION AND/OR TREATMENT OF ANGIOGENIC DISORDERS AND CANCERS” (TRAGEX PHARMA, priority 2011, published 2013)

Columns and labels:
Format in all cases: cell-based
HCT-116 = experiment: WST-1 proliferation assay, HCT-116; details: Homo sapiens; for IC50: Colon HCT-116, 72 h, read-out: Anti-proliferative activity IC50 (μM) ± SD; for inhibition at 0.1 µM: HCT-116, 0.1 μM; for inhibition at 0.5 µM: HCT-116, 0.5 μM; for inhibition at 1 µM: HCT-116, 1 μM
Description: (§1) Several cancer cell lines were used: breast cancer cells (MDA-MB-231 (ATTCC® Number HTB-26™), MDA-MB-436 (ATTCC® Number HTB-130™), MDA-MB-438, BT-474 (ATTCC® Number HTB-20™)); cervical cancer cells (HeLa (ATTCC® Number CCL-2™)); colon cancer cells (HCT-116 (ATTCC® Number CCL-247™) and HT-29 (ATTCC® Number HTB-38™)); osteosarcoma cells (U2OS (ATTCC® Number HTB-96™)); pancreas cancer cells (MIA PaCa-2 (ATTCC® Number CRL-1420™) and Panc-10.5 (ATTCC® Number CRL-2547™)); prostate cancer cells (PC-3 (ATTCC® Number CRL-1435™) and LNCaP (ATTCC® Number CRL-1740™)); brain cancer cells (U87 glioblastoma (ATTCC® Number HTB-14™) and SH-SYSY neuroblastoma (ATTCC® Number CRL-2266™)).
(§2) All the cancer cell lines were maintained in cultured in DMEM GlutaMAX™ (GIBCO Invitrogen, France, cat no 31966047) enhanced with 10% foetal bovine serum (GIBCO Invitrogen, France, cat no 10270-106) and 1% penicillin G/streptomycin (GIBCO Invitrogen, France, cat no 15140-122). Only Panc-10.5 cells were cultivated in RPMI 1640 medium (Gibco) supplemented with 2 mM L-glutamine, 1.5 g/L sodium bicarbonate, 4.5 g/L glucose, 10 mM HEPES, 1 mM sodium pyruvate, 10 Units/ml human insulin, […] (SVF): 15% (75 ml in 500 ml of medium).
(§3) Cells were grown as subconfluent monolayer and cultured in 75 cm^2 flasks at 37° C., 5% CO2 in a humidified atmosphere, and medium was changed every two days. Only cells from passages 2-6 were used for the experiments.
(§4) After observation of cells under the microscope, old media were removed and the adherent cells washed gently twice with PBS (Phosphate Buffer Saline, —Ca^2+, —Mg^2+, Lonza cat no: 17-512F/12). All cells were detached with 3 ml of trypsin/EDTA (chelator of calcium and magnesium ions) (Lonza), incubated for 5 min at 37° C., and examined using a microscope to ensure that the cells were detached and floating. Then, 3 ml TNS (Trypsin Neutralizing Solution, Lonza, France, cat no CC-5002) or of culture medium were added to inactivate the trypsin, and the cell suspension was transferred in a falcon and centrifuged for 7 min at 1400 rpm. The supernatant was removed and the cell pellet resuspended in […] of culture medium. 50 μl of this solution were transferred in 20 μl of isotonic solution and the cells were counted by count cellular (Beckman Coulter). At day 0, 200 μl of cellular suspension (3.10^3 cells/well for the HUVEC cells, breast cancer cells (MDA-MB-231 1.10^4 cells/well, MDA-MB-436 1.10^4 cells/well, MDA-MB-438 2.10^4 cells/well, BT-474 2.5.10^4 cells/well); cervical cancer cells (HeLa 5.000 cells/well); colon cancer cells (HCT-116 5.10^3 cells/well, HCT-29 1.1.10^4 cells/well); osteosarcoma cells (U2OS 8.10^3 cells/well); pancreas cancer cells (MIA PaCa-2 5.10^3 cells/well, Panc-10.5 1.5.10^4 cells/well); prostate cancer cells (PC-3 4.10^3 cells/well, LNCaP 2.10^4 cells/well); brain cancer cells (U87 5.10^3 cells/well, SH-SYSY 8.10^4 cells/well)) were then plated on 96 well plates and incubated at 37° C. in a humidified atmosphere of 5% CO2 for 24 h.
(§5) At day 1, the compounds 1 or 2 of the invention were added at increasing concentrations (0.1-10 μM) in the wells and plates were incubated at 37° C. in a humidified atmosphere of 5% CO2 for 72 h.
(§6) The cell proliferation WST-1 assay is a colorimetric assay for the quantification of cell proliferation and viability, based on the enzymatic cleavage of the tetrazolium salt WST-1 added to the culture medium, to a water soluble colored formazan dye, detected by absorbance at 450 nm, by mitochondrial succinate-tetrazolium reductase in viable cells. An augmentation in enzyme activity will then lead to an increase in the amount of formazan dye formed, which directly correlates to the number of metabolically active cells in the culture.
(§7) After an incubation period of 72 h, at day 4, were prepared the 19 ml medium with reagent WST-1 1 ml ([…]). The medium was removed from the 96 microplate and 200 μl of solution WST-1/medium were added for each well. […]

MIA PaCa-2 = experiment: WST-1 proliferation assay, MIA PaCa-2; details: Homo sapiens; Pancreas MIA PaCa-2, 72 h; read-out: Anti-proliferative activity IC50 (μM) ± SD
Description: as §1, with “CRL-2266™)). […]” for “CRL-2266™)).”
After observation of cells under the microscope, old media were removed and the adherent cells washed gently twice with PBS (Phosphate Buffer Saline, —Ca^2+, —Mg^2+, Lonza cat no: 17-512F/12). […] 50 μl of this solution were transferred in 20 μl of isotonic solution and the cells were counted by count cellular (Beckman Coulter). […]
(§8) The cell proliferation WST-1 assay is a colorimetric assay for the quantification of cell proliferation and viability, based on the enzymatic cleavage of the tetrazolium salt WST-1 added to the culture medium, to a water soluble colored formazan dye, detected by absorbance at 450 nm, by mitochondrial succinate-tetrazolium reductase in viable cells. […]

RAJI = experiment: WST-1 proliferation assay, RAJI; details: Homo sapiens; Burkitt's lymphoma RAJI; read-out: Anti-proliferative activity IC50 (μM) ± SD
Method: as §2
(§9) Cells were grown as subconfluent monolayer and cultured in 75 cm^2 flasks at 37° C., 5% CO2 in a humidified atmosphere, and medium was changed every two days. […]
as §8
(§10) After an incubation period of 72 h, at day 4, were prepared the 19 ml medium with reagent WST-1 1 ml ([…]). […] The cells were incubated at 37° C. in a humidified atmosphere of 5% CO2 for 1 h 30 and the absorbance at 450-655 nm was measured by Microplate Manager 5.2 (Bio-Rad).

GRANTA-519 = experiment: WST-1 proliferation assay, GRANTA-519; details: Homo sapiens; Mantle cell lymphoma GRANTA-519; read-out: Anti-proliferative activity IC50 (μM) ± SD
Method: as §2, §9, §8, §10

U2OS = experiment: WST-1 proliferation assay, U2OS; details: Homo sapiens; for IC50: Osteosarcoma U2OS, 72 h, read-out: Anti-proliferative activity IC50 (μM) ± SD; for inhibition at 0.1 µM / inhibition at 0.5 µM / inhibition at 1 µM: U2OS
Description: as §1, §2, §3, §4, §5, §6, §7

| SMILES | IC50 (HCT-116) [µM] | inhibition at 0.1 µM (HCT-116) [%] | inhibition at 0.5 µM (HCT-116) [%] | inhibition at 1 µM (HCT-116) [%] | IC50 (MIA PaCa-2) [µM] | IC50 (RAJI) [µM] | IC50 (GRANTA-519) [µM] | IC50 (U2OS) [µM] | inhibition at 0.1 µM (U2OS) [%] | inhibition at 0.5 µM (U2OS) [%] | inhibition at 1 µM (U2OS) [%] |
| --- | --- | --- | --- | --- | --- | --- | --- | --- | --- | --- | --- |
| Cc1ccc(-c2nc3ccccc3[nH]2)cc1NC(=S)NC(=O)c1ccc2c(c1)OCCO2 [Compound 1, N-[5-(1H-benzimidazol-2-yl)-2-methylphenyl]-N′-(2,3-dihydro-1,4-benzodioxin-6-ylcarbonyl)thiourea] | 1 | 7 | 51 | 56 | 1 | 1.5 ± 0.01 | 1 | 2.3 ± 0.04 | 15 | 29 | 36 |
| O=C(NC(=S)Nc1cccc(-c2nc3ccccc3[nH]2)c1)c1ccc2c(c1)OCCO2 [Compound 2, N-[3-(1H-benzimidazol-2-yl)phenyl]-N′-(2,3-dihydro-1,4-benzodioxin-6-ylcarbonyl)thiourea] | 1 | 49 | 58 | 60 | 1 | 1.3 ± 0.04 | 0.5 ± 0.02 | 1.8 ± 0.05 | 31 | 41 | 44 |
